Publication PMC7311426, “An amphipathic peptide with antibiotic activity against multidrug-resistant Gram-negative bacteria” (Nature Communications, 2020)
Where two headings read alike, the source gives them in different places.

Key:
Experiment in all cases: microbe, parasite or virus in culture
[1] = tested on: P. aeruginosa; conditions: Pseudomonas aeruginosa
Procedure, shortened: (§1)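 MICs were scored by eye after 18-20 h static incubation at 37 °C, with bacteria at 5 × 10^5 CFU mL^−1 in MHB. Peptides were serially diluted 2-fold over 12 points, top 128 or 64 μg mL^−1. CAMHB (CLSI) and 1% agarose-MHB variants were also run, at least six replicates.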

[2] = tested on: S. aureus
Procedure, shortened: as §1

[3] = tested on: S. enterica Typhi; conditions: Salmonella enterica, ATCC14028 / TYPHI, read-out: BMD MIC
Procedure, shortened: as §1

[4] = tested on: A. baumannii clinical isolates
Procedure, shortened: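 MIC90 from CLSI broth microdilution (M07-A9) in two clinical-isolate panels. US panel (331 isolates, 2010-2012): AA139 diluted in 0.01% acetic acid/0.1% BSA. Worldwide panel (445 isolates, 2011-2013, four regions): CAMHB, with 0.002% Tween 80 added for AA139 and polymyxin B.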

[5] = A. baumannii, worldwide isolates 2011-2013, n = 108

C[C@@H](O)[C@H]1C(=O)N2C(C(=O)O)=C(S[C@@H]3CN[C@H](C(=O)N(C)C)C3)[C@H](C)[C@H]12 [Meropenem, meropenem, reference compound]
0: Number of isolates with MIC 0.03 (MIC frequency distribution) ([4]; A. baumannii, worldwide isolates 2011-2013, n = 108, count of isolates at MIC 0.03) | Number of isolates with MIC 32 (MIC frequency distribution) ([4]; A. baumannii, worldwide isolates 2011-2013, n = 108, count of isolates at MIC 32) | Number of isolates with MIC 64 (MIC frequency distribution) ([4]; A. baumannii, worldwide isolates 2011-2013, n = 108, count of isolates at MIC 64) | Number of isolates with MIC 128 (MIC frequency distribution) ([4]; A. baumannii, worldwide isolates 2011-2013, n = 108, count of isolates at MIC 128) | Number of isolates with MIC >32 (MIC frequency distribution) ([4]; A. baumannii, worldwide isolates 2011-2013, n = 108, count of isolates at MIC >32) | Number of isolates with MIC >128 (MIC frequency distribution) ([4]; A. baumannii, worldwide isolates 2011-2013, n = 108, count of isolates at MIC >128) | Number of isolates with MIC ≤0.015 (MIC frequency distribution) ([4]; A. baumannii, worldwide isolates 2011-2013, n = 108, count of isolates at MIC ≤0.015)
0.06 µg/mL: MIC ([1]; read-out: MIC, broth microdilution, P. aeruginosa UNT 138-1 spontaneous mutant, AA139 selection 4X, plate 1, colony 3, drug-free passage 1) | MIC ([1]; read-out: MIC, broth microdilution, P. aeruginosa UNT 138-1 spontaneous mutant, AA139 selection 4X, plate 1, colony 4, drug-free passage 1) | MIC ([1]; read-out: MIC, broth microdilution, P. aeruginosa UNT 138-1 spontaneous mutant, AA139 selection 4X, plate 1, colony 6, drug-free passage 1) | MIC ([1]; read-out: MIC, broth microdilution, P. aeruginosa UNT 138-1 spontaneous mutant, AA139 selection 4X, plate 1, colony 7, drug-free passage 1) | MIC ([1]; read-out: MIC, broth microdilution, P. aeruginosa UNT 138-1 spontaneous mutant, AA139 selection 4X, plate 2, colony 1, drug-free passage 1) | MIC ([1]; read-out: MIC, broth microdilution, P. aeruginosa UNT 138-1 spontaneous mutant, AA139 selection 4X, plate 2, colony 1, drug-free passage 5) | MIC ([1]; read-out: MIC, broth microdilution, P. aeruginosa UNT 138-1 spontaneous mutant, AA139 selection 4X, plate 2, colony 7, drug-free passage 1) | MIC ([1]; read-out: MIC, broth microdilution, P. aeruginosa UNT 138-1 spontaneous mutant, AA139 selection 8X, plate 1, colony 1, drug-free passage 1) | MIC ([1]; read-out: MIC, broth microdilution, P. aeruginosa UNT 138-1 spontaneous mutant, AA139 selection 8X, plate 1, colony 1, drug-free passage 5) | MIC ([1]; read-out: MIC, broth microdilution, P. aeruginosa UNT 138-1 spontaneous mutant, AA139 selection 8X, plate 1, colony 2, drug-free passage 1) | MIC ([1]; read-out: MIC, broth microdilution, P. aeruginosa UNT 138-1 spontaneous mutant, AA139 selection 8X, plate 1, colony 5, drug-free passage 1) | MIC ([1]; read-out: MIC, broth microdilution, P. aeruginosa UNT 138-1 spontaneous mutant, AA139 selection 8X, plate 1, colony 5, drug-free passage 5) | MIC ([1]; read-out: MIC, broth microdilution, P. aeruginosa UNT 138-1 spontaneous mutant, AA139 selection 8X, plate 2, colony 1, drug-free passage 1) | BMD MIC ([2]; S. aureus ATCC 25923 MSSA, CAMHB, mode of 6 replicates) | MIC ([2]; Staphylococcus aureus, ATCC25923 / MSSA, read-out: BMD MIC)
0.5 µg/mL: MIC ([1]; read-out: MIC, broth microdilution, P. aeruginosa UNT 138-1 spontaneous mutant, AA139 selection 4X, plate 2, colony 5, drug-free passage 1) | MIC ([1]; read-out: MIC, broth microdilution, P. aeruginosa UNT 138-1 spontaneous mutant, AA139 selection 4X, plate 2, colony 6, drug-free passage 1)
0.125 µg/mL: MIC [3]
10: Number of isolates with MIC 0.25 (MIC frequency distribution) ([4]; A. baumannii, worldwide isolates 2011-2013, n = 108, count of isolates at MIC 0.25)
0.25 µg/mL: MIC ([1]; read-out: MIC, broth microdilution, P. aeruginosa UNT 138-1 spontaneous mutant, AA139 selection 4X, plate 1, colony 6, drug-free passage 5) | MIC ([1]; read-out: MIC, broth microdilution, P. aeruginosa UNT 138-1 spontaneous mutant, AA139 selection 4X, plate 2, colony 2, drug-free passage 1)
82: Number of isolates with MIC >16 (MIC frequency distribution) ([4]; A. baumannii, worldwide isolates 2011-2013, n = 108, count of isolates at MIC >16)
> 16 µg/mL: MIC50 [4, 5] | MIC90 [4, 5] | MIC90 ([4]; Acinetobacter baumannii)
>16 µg/mL: MIC90 ([4]; US isolates 2010–2012, A. baumannii MDR, n = 19) | MIC90 ([4]; US isolates 2010–2012, A. baumannii XDR, n = 31)
0.12 µg/mL: MIC ([1]; read-out: MIC, broth microdilution, P. aeruginosa UNT 138-1 spontaneous mutant, AA139 selection 4X, plate 1, colony 3, drug-free passage 5) | MIC ([1]; read-out: MIC, broth microdilution, P. aeruginosa UNT 138-1 spontaneous mutant, AA139 selection 4X, plate 1, colony 4, drug-free passage 5) | MIC ([1]; read-out: MIC, broth microdilution, P. aeruginosa UNT 138-1 spontaneous mutant, AA139 selection 4X, plate 1, colony 5, drug-free passage 1) | MIC ([1]; read-out: MIC, broth microdilution, P. aeruginosa UNT 138-1 spontaneous mutant, AA139 selection 4X, plate 1, colony 5, drug-free passage 5) | MIC ([1]; read-out: MIC, broth microdilution, P. aeruginosa UNT 138-1 spontaneous mutant, AA139 selection 4X, plate 1, colony 7, drug-free passage 5) | MIC ([1]; read-out: MIC, broth microdilution, P. aeruginosa UNT 138-1 spontaneous mutant, AA139 selection 4X, plate 2, colony 2, drug-free passage 5) | MIC ([1]; read-out: MIC, broth microdilution, P. aeruginosa UNT 138-1 spontaneous mutant, AA139 selection 4X, plate 2, colony 3, drug-free passage 1) | MIC ([1]; read-out: MIC, broth microdilution, P. aeruginosa UNT 138-1 spontaneous mutant, AA139 selection 4X, plate 2, colony 3, drug-free passage 5) | MIC ([1]; read-out: MIC, broth microdilution, P. aeruginosa UNT 138-1 spontaneous mutant, AA139 selection 4X, plate 2, colony 4, drug-free passage 1) | MIC ([1]; read-out: MIC, broth microdilution, P. aeruginosa UNT 138-1 spontaneous mutant, AA139 selection 4X, plate 2, colony 4, drug-free passage 5) | MIC ([1]; read-out: MIC, broth microdilution, P. aeruginosa UNT 138-1 spontaneous mutant, AA139 selection 4X, plate 2, colony 5, drug-free passage 5) | MIC ([1]; read-out: MIC, broth microdilution, P. aeruginosa UNT 138-1 spontaneous mutant, AA139 selection 4X, plate 2, colony 6, drug-free passage 5) | MIC ([1]; read-out: MIC, broth microdilution, P. aeruginosa UNT 138-1 spontaneous mutant, AA139 selection 4X, plate 2, colony 7, drug-free passage 5) | MIC ([1]; read-out: MIC, broth microdilution, P. aeruginosa UNT 138-1 spontaneous mutant, AA139 selection 8X, plate 1, colony 2, drug-free passage 5) | MIC ([1]; read-out: MIC, broth microdilution, P. aeruginosa UNT 138-1 spontaneous mutant, AA139 selection 8X, plate 1, colony 3, drug-free passage 1) | MIC ([1]; read-out: MIC, broth microdilution, P. aeruginosa UNT 138-1 spontaneous mutant, AA139 selection 8X, plate 1, colony 3, drug-free passage 5) | MIC ([1]; read-out: MIC, broth microdilution, P. aeruginosa UNT 138-1 spontaneous mutant, AA139 selection 8X, plate 1, colony 4, drug-free passage 1) | MIC ([1]; read-out: MIC, broth microdilution, P. aeruginosa UNT 138-1 spontaneous mutant, AA139 selection 8X, plate 1, colony 4, drug-free passage 5) | MIC ([1]; read-out: MIC, broth microdilution, P. aeruginosa UNT 138-1 spontaneous mutant, AA139 selection 8X, plate 2, colony 1, drug-free passage 5)
2: Number of isolates with MIC 0.5 (MIC frequency distribution) ([4]; A. baumannii, worldwide isolates 2011-2013, n = 108, count of isolates at MIC 0.5) | Number of isolates with MIC 4 (MIC frequency distribution) ([4]; A. baumannii, worldwide isolates 2011-2013, n = 108, count of isolates at MIC 4) | Number of isolates with MIC 8 (MIC frequency distribution) ([4]; A. baumannii, worldwide isolates 2011-2013, n = 108, count of isolates at MIC 8)
3: Number of isolates with MIC 2 (MIC frequency distribution) ([4]; A. baumannii, worldwide isolates 2011-2013, n = 108, count of isolates at MIC 2)
1: Number of isolates with MIC 0.06 (MIC frequency distribution) ([4]; A. baumannii, worldwide isolates 2011-2013, n = 108, count of isolates at MIC 0.06) | Number of isolates with MIC 1 (MIC frequency distribution) ([4]; A. baumannii, worldwide isolates 2011-2013, n = 108, count of isolates at MIC 1) | Number of isolates with MIC 16 (MIC frequency distribution) ([4]; A. baumannii, worldwide isolates 2011-2013, n = 108, count of isolates at MIC 16)
4: Number of isolates with MIC 0.125 (MIC frequency distribution) [4]
